biological target: AMPK; assay: AMPK activation, enzyme-linked immunosorbent assay; assay type: biochemical; settings: Table 9, compounds of Table 2
How it was run: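 AMPK activation by test compounds was measured by enzyme-linked immunosorbent assay.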

SMILES | EC50
O=C(NC1CCN(Cc2ccccc2)CC1)c1ccc2[nH]c3c(c2c1)CN(S(=O)(=O)c1ccc(C(F)(F)F)cc1)CC3 [Compound 2-19, N-(1-benzylpiperidin-4-yl)-2-(4-(trifluoromethyl)phenylsulfonyl)-2,3,4,5-tetrahydro-1H-pyrido[4,3-b]indole-8-carboxamide] | > 100 µM
N#Cc1ccc(CN2CCC(NC(=O)c3ccc4[nH]c5c(c4c3)CN(S(=O)(=O)c3ccc(C#N)cc3)CC5)CC2)cc1 [Compound 2-25, N-(1-(4-cyanobenzyl)piperidin-4-yl)-2-(4-cyanophenylsulfonyl)-2,3,4,5-tetrahydro-1H-pyrido[4,3-b]indole-8-carboxamide] | 10 to 50 µM
N#Cc1ccc(CN2CCC(NC(=O)c3ccc4[nH]c5c(c4c3)CN(S(=O)(=O)c3cccnc3)CC5)CC2)cc1 [Compound 2-26, N-(1-(4-cyanobenzyl)piperidin-4-yl)-2-(pyridin-3-ylsulfonyl)-2,3,4,5-tetrahydro-1H-pyrido[4,3-b]indole-8-carboxamide] | 10 to 50 µM
O=C(NC1CCN(C(=O)Nc2ccc(C(F)(F)F)cc2)CC1)c1ccc2[nH]c3c(c2c1)CN(Cc1ccc(C(F)(F)F)cc1)CC3 [Compound 2-33, 2-(4-(trifluoromethyl)benzyl)-N-(1-(4-(trifluoromethyl)phenylcarbamoyl)piperidin-4-yl)-2,3,4,5-tetrahydro-1H-pyrido[4,3-b]indole-8-carboxamide] | 1 to 5 µM
O=C(NC1CCN(S(=O)(=O)c2ccc(F)cc2)CC1)c1ccc2[nH]c3c(c2c1)CN(c1ccc(F)cc1)CC3 [Compound 2-35, 2-(4-fluorophenyl)-N-(1-(4-fluorophenylsulfonyl)piperidin-4-yl)-2,3,4,5-tetrahydro-1H-pyrido[4,3-b]indole-8-carboxamide] | 10 to 50 µM
O=C(NC1CCN(Cc2cccnc2)CC1)c1ccc2[nH]c3c(c2c1)CN(c1ccc(F)cc1)CC3 [Compound 2-36, 2-(4-fluorophenyl)-N-(1-(pyridin-3-ylmethyl)piperidin-4-yl)-2,3,4,5-tetrahydro-1H-pyrido[4,3-b]indole-8-carboxamide] | > 100 µM
O=C(NC1CCN(Cc2ccc(C(F)(F)F)cc2)CC1)c1ccc2[nH]c3c(c2c1)CN(c1ccc(F)cc1)CC3 [Compound 2-37, 2-(4-fluorophenyl)-N-(1-(4-(trifluoromethyl)benzyl)piperidin-4-yl)-2,3,4,5-tetrahydro-1H-pyrido[4,3-b]indole-8-carboxamide] | 5 to 10 µM
CC(C)(C)OC(=O)N1CCC(NC(=O)c2ccc3[nH]c4c(c3c2)CN(c2ccc(F)cc2)CC4)CC1 [Compound 2-38, tert-butyl 4-(2-(4-fluorophenyl)-2,3,4,5-tetrahydro-1H-pyrido[4,3-b]indole-8-carboxamido)piperidine-1-carboxylate] | 10 to 50 µM
O=C(NC1CCN(C(=O)c2ccc(F)cc2)CC1)c1ccc2[nH]c3c(c2c1)CN(c1ccc(F)cc1)CC3 [Compound 2-39, N-(1-(4-fluorobenzoyl)piperidin-4-yl)-2-(4-fluorophenyl)-2,3,4,5-tetrahydro-1H-pyrido[4,3-b]indole-8-carboxamide] | 10 to 50 µM
O=C(NC1CCN(C(=O)c2cccnc2)CC1)c1ccc2[nH]c3c(c2c1)CN(c1ccc(F)cc1)CC3 [Compound 2-40, 2-(4-fluorophenyl)-N-(1-nicotinoylpiperidin-4-yl)-2,3,4,5-tetrahydro-1H-pyrido[4,3-b]indole-8-carboxamide] | > 100 µM
O=C(NC1CCN(C(=O)c2ccc(C(F)(F)F)cc2)CC1)c1ccc2[nH]c3c(c2c1)CN(c1ccc(F)cc1)CC3 [Compound 2-41, 2-(4-fluorophenyl)-N-(1-(4-(trifluoromethyl)benzoyl)piperidin-4-yl)-2,3,4,5-tetrahydro-1H-pyrido[4,3-b]indole-8-carboxamide] | 10 to 50 µM
CC(C)(C)OC(=O)N1CCC(NC(=O)c2ccc3[nH]c4c(c3c2)CN(Cc2ccc(C(N)=O)cc2)CC4)CC1 [Compound 2-43, tert-butyl 4-(2-(4-carbamoylbenzyl)-2,3,4,5-tetrahydro-1H-pyrido[4,3-b]indole-8-carboxamido)piperidine-1-carboxylate] | > 100 µM
N#Cc1ccc(CN2CCC(NC(=O)c3ccc4[nH]c5c(c4c3)CN(Cc3ccc(C(N)=O)cc3)CC5)CC2)cc1 [Compound 2-44, 2-(4-carbamoylbenzyl)-N-(1-(4-cyanobenzyl)piperidin-4-yl)-2,3,4,5-tetrahydro-1H-pyrido[4,3-b]indole-8-carboxamide] | 10 to 50 µM
NC(=O)c1ccc(CN2CCc3[nH]c4ccc(C(=O)NC5CCN(Cc6ccncc6)CC5)cc4c3C2)cc1 [Compound 2-45, 2-(4-carbamoylbenzyl)-N-(1-(pyridin-4-ylmethyl)piperidin-4-yl)-2,3,4,5-tetrahydro-1H-pyrido[4,3-b]indole-8-carboxamide] | > 100 µM
NC(=O)c1ccc(CN2CCc3[nH]c4ccc(C(=O)NC5CCN(C(=O)c6ccncc6)CC5)cc4c3C2)cc1 [Compound 2-46, 2-(4-carbamoylbenzyl)-N-(1-isonicotinoylpiperidin-4-yl)-2,3,4,5-tetrahydro-1H-pyrido[4,3-b]indole-8-carboxamide] | > 100 µM
NC(=O)c1ccc(CN2CCc3[nH]c4ccc(C(=O)NC5CCN(Cc6ccc(C(F)(F)F)cc6)CC5)cc4c3C2)cc1 [Compound 2-47, 2-(4-carbamoylbenzyl)-N-(1-(4-(trifluoromethyl)benzyl)piperidin-4-yl)-2,3,4,5-tetrahydro-1H-pyrido[4,3-b]indole-8-carboxamide] | 10 to 50 µM
NC(=O)c1ccc(CN2CCc3[nH]c4ccc(C(=O)NC5CCN(Cc6ccc(F)cc6)CC5)cc4c3C2)cc1 [Compound 2-48, 2-(4-carbamoylbenzyl)-N-(1-(4-fluorobenzyl)piperidin-4-yl)-2,3,4,5-tetrahydro-1H-pyrido[4,3-b]indole-8-carboxamide] | > 100 µM

Second part, the molecule after the results:

EC50 | SMILES
0.5 to 1 µM | Cn1c2c(c3cc(C(=O)NC4CCN(Cc5ccc(C(F)(F)F)cc5)CC4)ccc31)CN(Cc1ccc(C(F)(F)F)cc1)CC2 [Compound 2-17, N-(1-(4-trifluoromethylbenzyl)piperidin-4-yl)-5-methyl-2-(4-(trifluoromethyl)benzyl)-2,3,4,5-tetrahydro-1H-pyrido[4,3-b]indole-8-carboxamide]
1 to 5 µM | Cn1c2c(c3cc(C(=O)NC4CCN(Cc5cccnc5)CC4)ccc31)CN(Cc1ccc(C(F)(F)F)cc1)CC2 [Compound 2-18, 5-methyl-N-(1-(pyridin-3-ylmethyl)piperidin-4-yl)-2-(4-(trifluoromethyl)benzyl)-2,3,4,5-tetrahydro-1H-pyrido[4,3-b]indole-8-carboxamide]
1 to 5 µM | CC(=O)n1c2c(c3cc(C(=O)NC4CCN(Cc5cccnc5)CC4)ccc31)CN(Cc1ccc(C(F)(F)F)cc1)CC2 [Compound 2-20, 5-acetyl-N-(1-(pyridin-3-ylmethyl)piperidin-4-yl)-2-(4-(trifluoromethyl)benzyl)-2,3,4,5-tetrahydro-1H-pyrido[4,3-b]indole-8-carboxamide]
0.5 to 1 µM | N#Cc1ccc(S(=O)(=O)N2CCC(NC(=O)c3ccc4[nH]c5c(c4c3)CN(Cc3ccc(C(F)(F)F)cc3)CC5)CC2)cc1 [Compound 2-21, N-(1-(4-cyanophenylsulfonyl)piperidin-4-yl)-2-(4-(trifluoromethyl)benzyl)-2,3,4,5-tetrahydro-1H-pyrido[4,3-b]indole-8-carboxamide]
0.5 to 1 µM | O=C(NC1CCN(S(=O)(=O)c2cccnc2)CC1)c1ccc2[nH]c3c(c2c1)CN(Cc1ccc(C(F)(F)F)cc1)CC3 [Compound 2-22, N-(1-(pyridin-3-ylsulfonyl)piperidin-4-yl)-2-(4-(trifluoromethyl)benzyl)-2,3,4,5-tetrahydro-1H-pyrido[4,3-b]indole-8-carboxamide]
1 to 5 µM | O=C(NC1CCN(S(=O)(=O)c2ccc(C(F)(F)F)cc2)CC1)c1ccc2[nH]c3c(c2c1)CN(Cc1ccc(C(F)(F)F)cc1)CC3 [Compound 2-23, 2-(4-(trifluoromethyl)benzyl)-N-(1-(4-(trifluoromethyl)phenylsulfonyl)piperidin-4-yl)-2,3,4,5-tetrahydro-1H-pyrido[4,3-b]indole-8-carboxamide]
1 to 5 µM | N#Cc1ccc(CN2CCC(NC(=O)c3ccc4[nH]c5c(c4c3)CN(S(=O)(=O)c3ccc(C(F)(F)F)cc3)CC5)CC2)cc1 [Compound 2-24, N-(1-(4-cyanobenzyl)piperidin-4-yl)-2-(4-(trifluoromethyl)phenylsulfonyl)-2,3,4,5-tetrahydro-1H-pyrido[4,3-b]indole-8-carboxamide]
1 to 5 µM | N#Cc1ccc(NC(=O)N2CCC(NC(=O)c3ccc4[nH]c5c(c4c3)CN(Cc3ccc(C(F)(F)F)cc3)CC5)CC2)cc1 [Compound 2-27, N-(1-(4-cyanophenylcarbamoyl)piperidin-4-yl)-2-(4-(trifluoromethyl)benzyl)-2,3,4,5-tetrahydro-1H-pyrido[4,3-b]indole-8-carboxamide]
1 to 5 µM | O=C(NC1CCN(S(=O)(=O)c2ccc(F)cc2)CC1)c1ccc2[nH]c3c(c2c1)CN(Cc1ccc(C(F)(F)F)cc1)CC3 [Compound 2-28, N-(1-(4-fluorophenylsulfonyl)piperidin-4-yl)-2-(4-(trifluoromethyl)benzyl)-2,3,4,5-tetrahydro-1H-pyrido[4,3-b]indole-8-carboxamide]
1 to 5 µM | N#Cc1cccc(S(=O)(=O)N2CCC(NC(=O)c3ccc4[nH]c5c(c4c3)CN(Cc3ccc(C(F)(F)F)cc3)CC5)CC2)c1 [Compound 2-29, N-(1-(3-cyanophenylsulfonyl)piperidin-4-yl)-2-(4-(trifluoromethyl)benzyl)-2,3,4,5-tetrahydro-1H-pyrido[4,3-b]indole-8-carboxamide]
1 to 5 µM | O=C(NC1CCN(S(=O)(=O)c2cccc(C(F)(F)F)c2)CC1)c1ccc2[nH]c3c(c2c1)CN(Cc1ccc(C(F)(F)F)cc1)CC3 [Compound 2-30, 2-(4-(trifluoromethyl)benzyl)-N-(1-(3-(trifluoromethyl)phenylsulfonyl)piperidin-4-yl)-2,3,4,5-tetrahydro-1H-pyrido[4,3-b]indole-8-carboxamide]
1 to 5 µM | O=C(NC1CCN(S(=O)(=O)c2ccc(Cl)cc2)CC1)c1ccc2[nH]c3c(c2c1)CN(Cc1ccc(C(F)(F)F)cc1)CC3 [Compound 2-32, N-(1-(4-chlorophenylsulfonyl)piperidin-4-yl)-2-(4-(trifluoromethyl)benzyl)-2,3,4,5-tetrahydro-1H-pyrido[4,3-b]indole-8-carboxamide]
